Test [1] relates to H1N1 T.R. (Tamiflu-resistant variant of H1N1 viral strain). Format: cell-based, Influenza A virus.
Test [2] concerns Tamiflu-resistant H1N1 viral strain rWSN^H274Y. Type of test: cell-based, Influenza A virus.

Structures are written as SMILES. Structures can show the parent of a compound that is named as a salt.

Experimental findings from patent US10221152B2 (priority 2013, dated 2019) are described below.

As to `COc1c(C)c2c(c(O)c1C/C=C(\C)CCC(=O)OCCN1CCOCC1)C(=O)OC2` [MPM, 2-morpholinoethyl(E)-6-(1,3-dihydro-4-hydroxy-6-methoxy-7-methyl-3-oxo-5-isobenzofuranyl)-4-methyl-4-hexenoate], in test [1], the “Minimal Inhibitory Concentration (MIC), H1N1 T.R.” value was 0.39 mg/L.
For the compound `COc1c(C)c2c(c(O)c1C/C=C(\C)CCC(=O)OCCN1CCOCC1)C(=O)OC2` [MPM-N, mycophenolate mofetil hydrochloride], in test [2], the “concentration required to inhibit rWSN^H274Y (immunofluorescence staining)” value came out at 5 µM.
Still for that read-out and setting: then `NC(=O)c1ncn([C@@H]2O[C@H](CO)[C@@H](O)[C@H]2O)n1` [Ribavirin, reference compound], with 100 µM.
